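A five-concentration, 48-hour dose response in 96-well plates underlies each endpoint, interpolated linearly between surrounding concentrations. GI50 marks 50% less growth.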 The source made the active and inactive calls. No stated cut-off is given here; in the data, active = GI50 up to about 1.1 µM and inactive = higher.
Experiments:
Assay in all cases: NCI tumour cell line growth inhibition, 48 h
[1] = tested on: 786-0
[2] = tested on: A498
[3] = tested on: A549
[4] = tested on: ACHN
[5] = tested on: BT-549
[6] = tested on: CAKI-1
[7] = tested on: CCRF-CEM
[8] = tested on: COLO 205
[9] = tested on: DU-145
[10] = tested on: EKVX
[11] = tested on: HCC 2998
[12] = tested on: HCT-116
[13] = tested on: HCT-15
[14] = tested on: HL-60
[15] = tested on: HOP-62
[16] = tested on: HOP-92
[17] = tested on: HT-29
[18] = tested on: Hs-578T
[19] = tested on: IGROV-1
[20] = tested on: K562
[21] = tested on: KM12
[22] = tested on: LOX IMVI
[23] = tested on: M14
[24] = tested on: MCF7
[25] = tested on: MDA-MB-231
[26] = tested on: MDA-MB-435
[27] = tested on: MDA-N
[28] = tested on: MOLT-4
[29] = tested on: Malme-3M
[30] = tested on: NCI-H226
[31] = tested on: NCI-H23
[32] = tested on: NCI-H460
[33] = tested on: NCI-H522
[34] = tested on: NCI/ADR-RES
[35] = tested on: OVCAR-3
[36] = tested on: OVCAR-4
[37] = tested on: OVCAR-5
[38] = tested on: OVCAR-8
[39] = tested on: PC-3
[40] = tested on: RPMI-8226
[41] = tested on: RXF 393
[42] = tested on: SF-268
[43] = tested on: SF-295
[44] = tested on: SF-539
[45] = tested on: SK-MEL-28
[46] = tested on: SK-MEL-2
[47] = tested on: SK-MEL-5
[48] = tested on: SK-OV-3
[49] = tested on: SN12C
[50] = tested on: SNB-19
[51] = tested on: SNB-75
[52] = tested on: SR
[53] = tested on: SW-620
[54] = tested on: T47D
[55] = tested on: TK-10
[56] = tested on: UACC-257
[57] = tested on: UACC-62
[58] = tested on: UO-31
[59] = tested on: U-251

In the case of COc1ccc(Oc2ccc3cc4c(cc3c2O)OCO4)c2cc(C)oc12, the GI50 [1] is reported as 35.8 µM (inactive), the GI50 [2] is reported as 38.3 µM (inactive) and the GI50 [3] is reported as 30.1 µM (inactive). For the same compound, the GI50 [4] was 35.6 µM (inactive), the GI50 [5] was 22.5 µM (inactive) and the GI50 [6] was 30.1 µM (inactive). The GI50 [7] was 21.7 µM (inactive), the GI50 [8] was 25.5 µM (inactive) and the GI50 [9] was 39.7 µM (inactive). For the same compound, the GI50 [10] was 28.7 µM (inactive), the GI50 [11] was 23.2 µM (inactive) and the GI50 [12] was 26.4 µM (inactive). For the same compound, the GI50 [13] was 22.1 µM, the GI50 [14] was 25.1 µM (inactive) and the GI50 [15] was 41.1 µM (inactive). For the same compound, the GI50 [16] was 25.2 µM (inactive), the GI50 [17] was 23.2 µM (inactive) and the GI50 [18] was 37.7 µM (inactive). The GI50 [19] was 37.8 µM (inactive), the GI50 [20] was 14.6 µM (inactive) and the GI50 [21] was 28.3 µM (inactive). The GI50 [22] was 19.3 µM (inactive), the GI50 [23] was 26.6 µM (inactive) and the GI50 [24] was 34 µM (inactive). The GI50 [25] was 33.9 µM (inactive), the GI50 [26] was 22.3 µM (inactive) and the GI50 [27] was 29.6 µM (inactive). The GI50 [28] was 14.3 µM (inactive), the GI50 [29] was 24.2 µM (inactive) and the GI50 [30] was 25.4 µM (inactive). The GI50 [31] was 26.4 µM (inactive), the GI50 [32] was 21.5 µM (inactive) and the GI50 [33] was 20.9 µM (inactive). For the same compound, the GI50 [34] was 20.9 µM (inactive), the GI50 [35] was 28.8 µM (inactive) and the GI50 [36] was 22.4 µM (inactive). For the same compound, the GI50 [37] was 59 µM (inactive), the GI50 [38] was 37.5 µM (inactive) and the GI50 [39] was 24.8 µM (inactive). The GI50 [40] was 14.9 µM (inactive), the GI50 [41] was 15.7 µM (inactive) and the GI50 [42] was 36 µM (inactive). The GI50 [43] was 33.5 µM (inactive), the GI50 [44] was 20.2 µM (inactive) and the GI50 [45] was 47.5 µM (inactive). For the same compound, the GI50 [46] was 18.5 µM (inactive), the GI50 [47] was 16.4 µM (inactive) and the GI50 [48] was 52.7 µM (inactive). The GI50 [49] was 29.6 µM (inactive), the GI50 [50] was 36.9 µM (inactive) and the GI50 [51] was 33.4 µM (inactive). The GI50 [52] was 19.3 µM (inactive), the GI50 [53] was 27.2 µM (inactive) and the GI50 [54] was 12.3 µM (inactive). The GI50 [55] was 25.4 µM (inactive), the GI50 [56] was 20.8 µM (inactive) and the GI50 [57] was 35.6 µM (inactive). The GI50 [58] was 29.1 µM (inactive).
With CC(C)C1(O)C(=O)N(c2c(F)c(F)c(F)c(F)c2F)C(=S)N1CCSc1ccccc1 (configuration not stated) the GI50 [1] was 19.1 µM (inactive), the GI50 [2] was 16.3 µM (inactive) and the GI50 [3] was 15.3 µM (inactive). The GI50 [4] was 17.5 µM (inactive), the GI50 [5] was 16.1 µM (inactive) and the GI50 [6] was 12.2 µM (inactive). The GI50 [7] was 13.9 µM (inactive), the GI50 [8] was 17.9 µM (inactive) and the GI50 [9] was 17.1 µM (inactive). For the same compound, the GI50 [10] was 18.8 µM (inactive), the GI50 [11] was 20.6 µM (inactive) and the GI50 [12] was 18.2 µM (inactive). The GI50 [13] was 17.9 µM, the GI50 [14] was 14.3 µM (inactive) and the GI50 [15] was 18.5 µM (inactive). The GI50 [16] was 9.53 µM (inactive), the GI50 [17] was 18.4 µM (inactive) and the GI50 [18] was 22.6 µM (inactive). The GI50 [19] was 16.4 µM (inactive), the GI50 [20] was 13 µM (inactive) and the GI50 [21] was 17.1 µM (inactive). For the same compound, the GI50 [22] was 16.5 µM (inactive), the GI50 [23] was 17.5 µM (inactive) and the GI50 [24] was 17.2 µM (inactive). The GI50 [25] was 13.1 µM (inactive), the GI50 [26] was 18.2 µM (inactive) and the GI50 [27] was 17.2 µM (inactive). The GI50 [28] was 15.1 µM (inactive), the GI50 [29] was 17.3 µM (inactive) and the GI50 [30] was 20.7 µM (inactive). The GI50 [31] was 18.1 µM (inactive), the GI50 [32] was 19.2 µM (inactive) and the GI50 [33] was 16.6 µM (inactive). The GI50 [34] was 16.3 µM (inactive), the GI50 [35] was 16.4 µM (inactive) and the GI50 [36] was 15.2 µM (inactive). The GI50 [37] was 18.7 µM (inactive), the GI50 [38] was 19 µM (inactive) and the GI50 [39] was 15.7 µM (inactive). For the same compound, the GI50 [40] was 10.9 µM (inactive), the GI50 [41] was 17.3 µM (inactive) and the GI50 [42] was 18.4 µM (inactive). For the same compound, the GI50 [43] was 17.3 µM (inactive), the GI50 [44] was 20.1 µM (inactive) and the GI50 [45] was 16.5 µM (inactive). The GI50 [46] was 17.7 µM (inactive), the GI50 [47] was 17.4 µM (inactive) and the GI50 [48] was 17.3 µM (inactive). The GI50 [49] was 15.3 µM (inactive), the GI50 [50] was 17.8 µM (inactive) and the GI50 [51] was 16.7 µM (inactive). The GI50 [52] was 16.2 µM (inactive), the GI50 [53] was 16.6 µM (inactive) and the GI50 [54] was 16.2 µM (inactive). The GI50 [55] was 14.7 µM (inactive), the GI50 [59] was 18.2 µM (inactive) and the GI50 [56] was 18.2 µM (inactive). For the same compound, the GI50 [57] was 15.8 µM (inactive) and the GI50 [58] was 15.5 µM (inactive).
